Data set [1] relates to Biofilms of P. aeruginosa ATCC 10145. Put plainly: Efficacy against biofilm associated bacteria (Calgary biofilm device, viable sessile bacteria). Type of data set: cell-based. Conditions: pH 8.5, 37° C. On the procedure: Biofilms of P. aeruginosa ATCC 10145 are grown in Calgary biofilm devices (Innovotech, Alberta, Canada) for 42 hours. Trypticase Soy Broth (TSB) is used in the biofilm devices as the culture medium. After the incubation period, loosely associated cells are removed from the biofilms that develop on the surfaces of the submerged pegs by rinsing with sterile 0.85% NaCl. The biofilms are than treated with DBMAL (inventive biocide), glutaraldehyde (comparative biocide), or DBNPA (comparative biocide). A dilute salts solution is used as the test medium for the efficacy studies. The salts solution contains (in grams per liter of deionized water) CaCl2, 0.2203 g; MgSO4, 0.1847 g; and NaHCO3, 0.2033 g. The final pH of the solution is adjusted to 8.5.
The concentrations of each active tested are 100 ppm, 50 ppm, 25 ppm, 12.5 ppm in the salts solution and the contact times are for 4 hours, 24 hours and 48 hours, respectively. In all cases, the incubation temperature is 37° C. Sterile deionized water is used as a non-biocide treated control. After each contact time, the pegs are washed with sterile 0.85% NaCl and the bacteria are released from the biofilm on the surface of each peg into sterile 0.85% NaCl by sonication (see Ceri et al., Journal of Clinical Microbiology 1999, 37: 1771-1776). The viable bacteria are then enumerated in TSB, using a serial dilution method.

Data set [2] has the same test system. Put plainly: Biofilm removal evaluation (crystal violet, OD 580 nm). The class given is cell-based. Conditions: 25, 50, 100 ppm, 4 hr and 24 hr, 37° C. On the procedure:
The Calgary biofilm device is used to prepare biofilms of P. aeruginosa ATCC 10145. TSB is used as the culture medium and biofilms are allowed to develop over a period of 42 hours. […] Concentrations of the actives tested are 25 ppm, 50 ppm, 100 ppm in sterile diluted salts solution as the test medium. The treatment is conducted at 37° C. for 4 hr and 24 hr, respectively. Sterile deionized water is used as an untreated control. After treatment, the pegs are washed with sterile 0.85% NaCl and then the biomass/biofilm on each peg is measured (see Stepanovic et al., Journal of Microbiological Methods, 2000, 40, 175-179). First the biofilm is fixed with 99% methanol and, after air drying, the pegs are stained with 2% (w/v) crystal violet and washed with tap water. The pegs are then air dried and the crystal violet bound to the biofilm is extracted with 33% glacial acetic acid. The optical density (OD) of the extracted solution is measured at 580 nm. The results are depicted in FIG. 2.

Data set [3] has as its system amoeba fed Legionella pneumophila (AfLp). The class given is cell-based. Particulars: for Active concentration required for complete kill (6 log reduction): Amoeba fed Legionella.
The conditions of data set [4]: buffer.
Data set [5] is described as follows: Stability against hydrolysis (HPLC level remaining in buffered dilute solutions).
A further data set has as its system Free Legionella. The class given is cell-based, Legionella pneumophila.

Like-named read-outs stand apart in the source and are kept apart here.

Turning to `NC(=O)C(Br)(Br)C(N)=O` [DBMAL, 2,2-Dibromomalonamide], the “effectiveness against sessile bacteria (reduction of viable sessile bacteria)” value in data set [1] (12.5-100 ppm, 4, 24 and 48 hours, in general) is on record as “more effective than DBNPA”; in data set [1] (25 ppm active concentration, efficacy increases with contact time), “very effective”. In data set [2], the biofilm removal result was “overall better biofilm removal than DBNPA”. Besides, in data set [3] (corresponding time points (2 and 24 hours)), the “level needed for 6 log kill of AfLp relative to that needed for free cells” value was “about twice”. Also, the “level remaining (HPLC)” value is on record as 3746 in data set [4] (0 h, pH 6.9); 3866 in data set [4] (0 h, pH 8); 4576 in data set [4] (0 h, pH 9); 4612 in data set [4] (2 h, pH 6.9); 4031 in data set [4] (2 h, pH 8); 4022 in data set [4] (2 h, pH 9). For the same compound, the “level remaining (HPLC)” value in data set [4] (24 h, pH 6.9) amounted to 3857; in data set [4] (24 h, pH 8) it was 4191; in data set [4] (24 h, pH 9), 3891; in data set [4] (48 h, pH 6.9), 3935; in data set [4] (48 h, pH 8) it was 4187; in data set [4] (48 h, pH 9) it was 3603. Besides, the “level remaining (HPLC)” value in data set [4] (72 h, pH 6.9) is reported as 3966; in data set [4] (72 h, pH 8) it was 4290; in data set [4] (72 h, pH 9), 4018; in data set [4] (96 h, pH 6.9) it was 4212; in data set [4] (96 h, pH 8), 3883; in data set [4] (96 h, pH 9), 3456. The “Calculated Percent Reduction of the Active Ingredient” value is given as 0% in data set [5] (pH 6.9, T = 30 C., 48 hours); 0% in data set [5] (pH 6.9, T = 30 C., 72 hours); 0% in data set [5] (pH 8, T = −1 C., 48 hours); 0% in data set [5] (pH 8, T = −1 C., 72 hours); 0% in data set [5] (pH 8, T = −1 C., 96 hours); 21% in data set [5] (pH 9, T = −1 C., 48 hours). Further, the “Calculated Percent Reduction of the Active Ingredient” value in data set [5] (pH 9, T = −1 C., 72 hours) is reported as 12%; in data set [5] (pH 9, T = −1 C., 96 hours), 24%.
On to `N#CC(Br)(Br)C(N)=O` [DBNPA, 2,2-Dibromo-3-nitrilopropionamide], for which the “level remaining (HPLC)” value turned out to be 3991 in data set [5] (pH 6.9, T = 30 C., 0 hours); 4155 in data set [5] (pH 6.9, T = 30 C., 2 hours); 2557 in data set [5] (pH 6.9, T = 30 C., 24 hours); 1361 in data set [5] (pH 6.9, T = 30 C., 48 hours); 918 in data set [5] (pH 6.9, T = 30 C., 72 hours); 658 in data set [5] (pH 6.9, T = 30 C., 96 hours). Besides, the “level remaining (HPLC)” value in data set [5] (pH 8, T = −1 C., 0 hours) is reported as 4068; in data set [5] (pH 8, T = −1 C., 2 hours), 3998; in data set [5] (pH 8, T = −1 C., 24 hours), 3506; in data set [5] (pH 8, T = −1 C., 48 hours), 3578; in data set [5] (pH 8, T = −1 C., 72 hours), 3149; in data set [5] (pH 8, T = −1 C., 96 hours) it was 3070. The “level remaining (HPLC)” value in data set [5] (pH 9, T = −1 C., 0 hours) was determined as 3842; in data set [5] (pH 9, T = −1 C., 2 hours) it was 2818; in data set [5] (pH 9, T = −1 C., 24 hours), 1256; in data set [5] (pH 9, T = −1 C., 48 hours), 659; in data set [5] (pH 9, T = −1 C., 72 hours), 363; in data set [5] (pH 9, T = −1 C., 96 hours) it was 239.
In the case of `CCCCCCCCCC[N+](C)(C)CCCCCCCCCC.[Cl-]` [DDAC, didecyl dimethyl ammonium chloride], the “Active concentration required for complete kill (6 log reduction)” value in the data set on Free Legionella (2 hours exposure) worked out at 20 ppm; in the data set with Free Legionella (24 hours exposure), 15 ppm; in data set [3] (2 hours exposure), 60 ppm; in data set [3] (24 hours exposure), 40 ppm.
Take `O=CCCCC=O` [Glutaraldehyde]: in data set [1] (50 ppm active concentration, 48 h treatment), the “effectiveness against sessile bacteria (reduction of viable sessile bacteria)” value is “low effectiveness”. Further, the “Active concentration required for complete kill (6 log reduction)” value in the data set with Free Legionella (2 hours exposure) is reported as 10 ppm; in the data set on Free Legionella (24 hours exposure) it was 5 ppm; in data set [3] (2 hours exposure) it was 20 ppm; in data set [3] (24 hours exposure), 15 ppm.
